Patent US9738932B2, “Biomarkers for cardiovascular side-effects induced by cox-2 inhibitory compounds” (FIRALIS SAS, priority 2005, dated 2017)

Test system: mRNA expression in cardiovascular tissues
Assay: Affymetrix GeneChip mRNA expression profiling of monkey tissues (iliac vein, pulmonary vein, aorta, carotid artery, heart) after two-week oral-gavage treatment
[1] = iliac vein, group avg, Vioxx without A60055

CS(=O)(=O)c1ccc(C2=C(c3ccccc3)C(=O)OC2)cc1 [Vioxx®, rofecoxib]
HFE (211866_x_at) avg fold change vs control [1]: 1.0 fold | HHL (203020_at) avg fold change vs control [1]: 1.1 fold | HLA-A (211528_x_at) avg fold change vs control [1]: 1.3 fold | HLA-A (211529_x_at) avg fold change vs control [1]: 1.2 fold | HLA-A (211530_x_at) avg fold change vs control [1]: 1.8 fold | HLA-A (215313_x_at) avg fold change vs control [1]: 1.3 fold | HLA-B (208729_x_at) avg fold change vs control [1]: 1.2 fold | HLA-B (209140_x_at) avg fold change vs control [1]: 1.1 fold | HLA-B (211911_x_at) avg fold change vs control [1]: 1.4 fold | HLA-C (208812_x_at) avg fold change vs control [1]: 1.3 fold | HLA-C (214459_x_at) avg fold change vs control [1]: 1.4 fold | HLA-C (216526_x_at) avg fold change vs control [1]: 1.3 fold | HLA-DMA (217478_s_at) avg fold change vs control [1]: 1.1 fold | HLA-DMB (203932_at) avg fold change vs control [1]: 1.1 fold | HLA-DQA1 (212671_s_at) avg fold change vs control [1]: 1.0 fold | HLA-DQB1 (209823_x_at) avg fold change vs control [1]: 0.9 fold | HLA-DQB1 (211654_x_at) avg fold change vs control [1]: 1.0 fold | HLA-DQB1 (211656_x_at) avg fold change vs control [1]: 1.0 fold | HLA-DQB2 (212998_x_at) avg fold change vs control [1]: 1.2 fold | HLA-DRA (208894_at) avg fold change vs control [1]: 1.0 fold | HLA-DRA (210982_s_at) avg fold change vs control [1]: 1.0 fold | HLA-DRB1 (215193_x_at) avg fold change vs control [1]: 1.2 fold | HLA-DRB3 (209312_x_at) avg fold change vs control [1]: 1.1 fold | HLA-DRB6 (217362_x_at) avg fold change vs control [1]: 1.2 fold | HLA-E (200905_x_at) avg fold change vs control [1]: 1.3 fold | HLA-E (217456_x_at) avg fold change vs control [1]: 1.2 fold | HLA-F (204806_x_at) avg fold change vs control [1]: 1.1 fold | HLA-F (221875_x_at) avg fold change vs control [1]: 1.2 fold | ICAM1 (202638_s_at) avg fold change vs control [1]: 0.8 fold | ICAM1 (215485_s_at) avg fold change vs control [1]: 0.9 fold | ICSBP1 (204057_at) avg fold change vs control [1]: 1.4 fold | IFI27 (202411_at) avg fold change vs control [1]: 3.8 fold | IFI30 (201422_at) avg fold change vs control [1]: 1.0 fold | IFI44 (214453_s_at) avg fold change vs control [1]: 2.5 fold | IFIT1 (203153_at) avg fold change vs control [1]: 1.5 fold | IFIT2 (217502_at) avg fold change vs control [1]: 1.3 fold | IFIT4 (204747_at) avg fold change vs control [1]: 0.9 fold | IFITM2 (201315_x_at) avg fold change vs control [1]: 1.1 fold | IFITM3 (212203_x_at) avg fold change vs control [1]: 1.4 fold | IGF1 (209541_at) avg fold change vs control [1]: 0.9 fold | IGFBP4 (201508_at) avg fold change vs control [1]: 0.5 fold | IL1A (208200_at) avg fold change vs control [1]: 1.1 fold | IL2RG (204116_at) avg fold change vs control [1]: 1.4 fold | IL27RA (205926_at) avg fold change vs control [1]: 1.1 fold | INDO (210029_at) avg fold change vs control [1]: 1.1 fold | INPP5D (203332_s_at) avg fold change vs control [1]: 1.2 fold | IRF1 (202531_at) avg fold change vs control [1]: 0.8 fold | IRF7 (208436_s_at) avg fold change vs control [1]: 1.6 fold | ISGF3G (203882_at) avg fold change vs control [1]: 1.7 fold | ITGB2 (202803_s_at) avg fold change vs control [1]: 0.6 fold | JAK1 (214377_s_at) avg fold change vs control [1]: 1.3 fold | KLKB1 (206541_at) avg fold change vs control [1]: 1.2 fold | LAIR1 (208071_s_at) avg fold change vs control [1]: 0.5 fold | LCK (204890_s_at) avg fold change vs control [1]: 1.5 fold | LCP2 (205270_s_at) avg fold change vs control [1]: 0.9 fold | LILRB1 (207857_at) avg fold change vs control [1]: 0.5 fold | LILRB1 (211100_x_at) avg fold change vs control [1]: 1.3 fold | LILRB3 (208594_x_at) avg fold change vs control [1]: 0.9 fold | LILRB3 (210225_x_at) avg fold change vs control [1]: 0.8 fold | LRMP (204674_at) avg fold change vs control [1]: 1.7 fold | LY86 (205859_at) avg fold change vs control [1]: 1.5 fold | LY96 (206584_at) avg fold change vs control [1]: 1.1 fold | LYN (210754_s_at) avg fold change vs control [1]: 1.0 fold | MAF (209348_s_at) avg fold change vs control [1]: 1.0 fold | PCOLCE (202465_at) avg fold change vs control [1]: 0.5 fold | PLA2G4C (209785_s_at) avg fold change vs control [1]: 1.2 fold | PLCL2 (216217_at) avg fold change vs control [1]: 1.0 fold | PLSCR1 (202446_s_at) avg fold change vs control [1]: 1.2 fold | PRC1 (218009_s_at) avg fold change vs control [1]: 0.7 fold | PRG1 (201858_s_at) avg fold change vs control [1]: 0.8 fold | PRG1 (201859_at) avg fold change vs control [1]: 0.8 fold | PTPN22 (206060_s_at) avg fold change vs control [1]: 1.0 fold | PTPRC (207238_s_at) avg fold change vs control [1]: 1.3 fold | SOCS3 (206360_s_at) avg fold change vs control [1]: 0.8 fold | STAT1 (209969_s_at) avg fold change vs control [1]: 1.7 fold | STAT1 (AFFX-HUMISGF3A/M97935_5_at) avg fold change vs control [1]: 1.3 fold | STAT1 (AFFX-HUMISGF3A/M97935_MA_at) avg fold change vs control [1]: 1.3 fold | STAT1 (AFFX-HUMISGF3A/M97935_MB_at) avg fold change vs control [1]: 1.5 fold | TAPBP (208829_at) avg fold change vs control [1]: 0.9 fold | TCTEL1 (201999_s_at) avg fold change vs control [1]: 0.9 fold | TLR1 (210176_at) avg fold change vs control [1]: 0.9 fold | TLR2 (204924_at) avg fold change vs control [1]: 0.9 fold | TNFAIP3 (202643_s_at) avg fold change vs control [1]: 0.8 fold | TNFAIP3 (202644_s_at) avg fold change vs control [1]: 1.2 fold | TNFSF6 (210865_at) avg fold change vs control [1]: 1.1 fold | TNFSF10 (202687_s_at) avg fold change vs control [1]: 1.2 fold | TNFSF10 (202688_at) avg fold change vs control [1]: 0.9 fold | TRGC2 (211144_x_at) avg fold change vs control [1]: 1.3 fold | TRGC2 (216920_s_at) avg fold change vs control [1]: 1.0 fold | VCAM1 (203868_s_at) avg fold change vs control [1]: 0.8 fold | XCL1 (206366_x_at) avg fold change vs control [1]: 1.5 fold | XCL1 (214567_s_at) avg fold change vs control [1]: 1.1 fold | XLKD1 (219059_s_at) avg fold change vs control [1]: 1.0 fold | cig5 (213797_at) avg fold change vs control [1]: 1.4 fold | expression of CXCL10 and PD-ECGF (mainly in iliac and pulmonary veins, monkey #A60055): strongly induced | increase of CXCL10 mRNA expression in pulmonary vein (monkey #A60055, 50 mg/kg/day oral gavage, two weeks, pulmonary vein): 20 fold | increase of MCP-1 mRNA expression in pulmonary vein (monkey A60055, 50 mg/kg/day oral gavage, two weeks, pulmonary vein): 150 fold | expression of cPLA2 (most of the cardiovascular tissues): upregulated | expression of Toll like receptor 2 and CD14 (several tissues): significantly increased
